# Assay results: paper PMC7247319, “The mitochondria-targeted peptide SS-31 binds lipid bilayers and modulates surface electrostatics as a key component of its mechanism of action” (The Journal of Biological Chemistry, 2020)
# Where a SMILES comes first, the peptide text is derived from it. [ ]: non-standard residue; d: D form. Dmt = Cc1cc(O)cc(C)c1C[C@H](N)C(=O)O
# How the values were obtained:
# [1] = test system: LUVs containing 20 mol % TOCL or POPG; assay: Zeta potential measurements of LUVs with increasing peptide; conditions: LUVs 100 μM total lipid, n = 3
# Experimental: (§1) Figure 3. SS-31 binding and surface electrostatics. A, binding isotherms. Peptide was titrated with LUVs of the indicated composition (20% TOCL, [SS-31] = 7.5 μM and 20% POPG, [SS-31] = 3.8 μM) at 30-nmol total lipid increments in the presence of different concentrations of added KCl. Values shown are means ± S.D. (error bars) (n = 3), and lines show data fits based on Equation S3. […] B and C, effect of SS-31 binding on surface charge. Measurements of ζ (B) and ANS fluorescence (C) are shown as a function of [SS-31]/[lipid]^eff for membranes containing 20% TOCL and 20% POPG as indicated. Values shown are means ± S.D. (error bars) (n = 3).
# (§2) To continue this analysis, we determined the relationship between SS-31 binding and surface electrostatics by two complementary approaches. We first performed zeta potential (ζ) measurements of LUVs containing 20 mol % TOCL or POPG with increasing [SS-31] (Fig. 3B). […] As an independent technique, we measured the effect of SS-31 on surface electrostatics using 1-anilinonaphthalene-8-sulfonic acid (ANS), a fluorescent reporter whose binding to anionic bilayers increases as the magnitude of the ψs is reduced, measured as an increase in probe emission intensity ([42]) (Fig. 3C and Fig. S9D). […]
# [2] = test system: LUVs containing 20% TOCL or 20% POPG; assay: ANS fluorescence reporter of surface potential of model membranes; conditions: increasing [peptide]/[lipid]eff, 20% TOCL or 20% POPG LUVs
# Experimental: as §1
# as §2, with “approaches.” for “approaches. We first performed zeta potential (ζ) measurements of LUVs containing 20 mol % TOCL or POPG with increasing [SS-31] (Fig. 3B).”
# Steady-state fluorescence measurements were performed with a Fluorolog 3-22 spectrofluorometer (HORIBA Jobin-Yvon) equipped with photon-counting electronics, double-grating excitation and emission monochromators, automated Glan–Thompson polarizers, and a 450-watt xenon lamp. […]
smiles,measurement,setting,value
"Cc1cc(O)cc(C)c1C[C@H](NC(=O)[C@H](N)CCCNC(=N)N)C(=O)N[C@@H](CCCCN)C(=O)N[C@@H](Cc1ccccc1)C(N)=O [SS-31, D-Arg-2′6′-dimethyl-Tyr-Lys-Phe-NH2] (H-[dR][Dmt]KF-NH2)",zeta potential (ζ) at saturation with increasing peptide,[1],~−30 mV
same,effect on ANS-detected surface potential (ψs) of anionic model membranes,[2],saturable ANS-detected reduction in the ψs
